Bounds are passed on as bounds.

In general, AC50 refers to the midpoint of the concentration-response curve, whichever way the signal moves. A higher AC50 goes with weaker potency.

This experiment deals with human bronchial epithelial cells, CFTR corrector, plate reader. Briefly: rescue of ΔF508 CFTR function, airway epithelium – human bronchial epithelial cells, plate reader, cherry-pick, two tests, dose response (AID 743267).
The mark [1] stands for this setting: measured here: test 2 replicate run.
[2] abbreviates: measured here: test 1 replicate run.

Consider `COc1ccc(/C=C2/CCCc3ccccc3C2=O)cc1`, for which the AC50 under setting [1] was determined as 1.92 µM. The same measure, in the same setting: in the case of `NS(=O)(=O)c1ccc(S(=O)(=O)N(CCc2ccccc2)Cc2ccccn2)cc1` it was below 0.0235 µM; in that of `Cc1cnc(NC(=O)c2ccc3c(c2)OCCO3)s1`, 4.71 µM; in that of `O=C1c2ccccc2C(=O)N1Cc1cnc(N2CCN(c3ccccc3)CC2)s1`, 44.1 µM. Consider `Cc1ccc(OCC(=O)Nc2ccc3c(c2)ncn3C)cc1`, for which the concentration at half-maximal activity (AC50) under setting [1] is above 50 µM.

Under setting [1], `COc1ccccc1C(=O)Nc1ccc2c(c1)nc(CCNC(=O)c1ccco1)n2C` had an AC50 of 5.48 µM. The same measure, in the same setting: in the case of `CNc1ccc2c3c(cccc13)C(=O)N(C)C2=O` it was 7.59 µM; in that of `COc1ccc(S(=O)(=O)Cc2ccc(C(=O)N3CCN(c4cccc(C)c4)C(C)C3)o2)cc1` (configuration not stated), 3.68 µM. The compound `CC(=NNC(=O)c1ccncc1)c1ccc2ccccc2c1O` yielded an AC50 under setting [1] of 7.94 µM. Under setting [1], `COc1cccc(N2CCN(C(=O)c3ccc(CS(=O)c4ccc(Cl)cc4)o3)CC2)c1` (configuration not stated) gave an AC50 of 1.48 µM.

The compound `CC1OC(OC2CC(O)C3(CO)C4C(O)CC5(C)C(C6=CC(=O)OC6)CCC5(O)C4CCC3(O)C2)C(O)C(O)C1O` (configuration not stated) showed an AC50 under setting [1] of 3.38 µM. Take `CN1/C(=C\C=C2/SC(=S)NC2=O)C(C)(C)c2ccccc21`: the AC50 under setting [1] worked out at 18.5 µM. Still for that read-out and setting: in the case of `Cc1cccc(N2CCN(C(=O)c3c(-c4ccccc4)noc3C)CC2)c1C` it was 2.59 µM. `CCOc1ccc(Cl)cc1C1=CC(=O)C[C@H](c2ccc(OC)cc2)C1` gave an AC50 under setting [1] of 1.92 µM. Turning to `CC1=Nc2cc(C(=O)NCC3CCCO3)ccc2Sc2ccc(C)cc21` (configuration not stated), the AC50 under setting [1] is 2.57 µM. As for `COC(=O)c1cn(C(=O)c2ccc(C)cc2C)c2ccccc12`, under setting [1], the concentration at half-maximal activity (AC50) stood at 7.53 µM. For the compound `COc1cccc(S(=O)(=O)N(C)C[C@@H]2Oc3cc(C4=CCCC4)ccc3S(=O)(=O)N([C@H](C)CO)C[C@H]2C)c1`, the AC50 under setting [2] is 16 µM. With `NS(=O)(=O)c1ccc(NC(=O)c2cccc3cc4ccccc4nc23)cc1`, the AC50 under setting [1] came out at 4.75 µM. On the same count and under the same terms, in the case of `COC(=O)/C=C/c1ccccc1S(=O)(=O)N(Cc1ccccc1)Cc1ccco1` it was 3.04 µM.

Compound `COc1ccccc1NS(=O)(=O)c1cc(N=N/C(C(=O)Nc2ccc(Cl)cc2)=C(/C)O)ccc1C` displayed a concentration at half-maximal activity (AC50) under setting [1] of 36.6 µM. Compound `CCOC(=O)c1ccc(N2CCOCC2)c(NC(=O)c2c(-c3ccccc3)noc2C)c1` displayed an AC50 under setting [1] of 4.89 µM. Same read-out and setting: in the case of `O=C(Nc1ccc(Br)cn1)c1cccc2ccccc12` it was 1.97 µM. Same read-out and setting: in the case of `COc1ccccc1NC(=S)N(Cc1ccco1)Cc1cc2cc(C)cc(C)c2[nH]c1=O` it was 7 µM. Still for that read-out and setting: in the case of `Cc1ccc(S(=O)(=O)N2C[C@H]3[C@H]4C(=O)N(C)C(=O)[C@H]4CC(=O)[C@H]3[C@@H]2c2ccccc2F)cc1` it was 37.1 µM; in that of `COc1ccccc1Nc1nc(-c2sc(NC(=O)C(C)(C)C)nc2C)cs1`, 3.84 µM.

Regarding `COc1ccccc1N1CCN(C(=O)c2ccc(-c3ccc(Cl)cc3)o2)CC1`, under setting [1], the AC50 is 6.64 µM. Consider `COc1ccc(OC)c(/C(C)=N\NC(=O)c2cc3cc(Cl)ccc3n2C)c1`, for which, under setting [1], the AC50 was 8.3 µM.

`COc1ccc(S(=O)(=O)Nc2ccc3c(c2)C(=O)N([C@@H](C)CO)C[C@@H](C)[C@H](CN(C)Cc2ccc(Oc4ccccc4)cc2)O3)cc1` displayed an AC50 under setting [2] of 0.13 µM. Turning to `O=S(=O)(Nc1ccc(F)cc1Cl)c1ccc(-c2cnc(C3CC3)o2)cc1`, the AC50 under setting [1] stood at 2.23 µM.

For the compound `COc1ccccc1C(=O)NC(=S)/C=C1/N(C)c2ccccc2C1(C)C`, under setting [1], the AC50 is above 50 µM. Same read-out and setting: in the case of `CC(=O)Nc1cccc(-c2ccnc3c2CC(C)(C(=O)NCc2cccs2)O3)c1` (configuration not stated) it was 3.3 µM; in that of `COC(=O)c1ccc(S(=O)(=O)N2CCc3ccccc32)cc1`, 19.1 µM; in that of `COc1ccc2c(c1)sc(N)[n+]2Cc1cc(C)cc2cccnc12`, 1.04 µM. On the same count and under the same terms, in the case of `COc1ccc(C(=O)c2cc([N+](=O)[O-])ccc2N2CCN(C)CC2)cc1` it was 3.74 µM; in that of `O=C(O)CCCCCCCCc1cn(Cc2ccc(C(=O)c3ccccc3)cc2)nn1`, 2.17 µM; in that of `Cc1ccc2c(CN3CCN(S(=O)(=O)c4ccc(Cl)cc4)CC3)cc(=O)oc2c1C`, 11.6 µM. The compound `Nc1ccc2c3c(cccc13)C(=O)N(c1ccccc1)C2=O` came in with a half-maximal activity concentration (AC50) under setting [1] of 16 µM. In the case of `COC(=O)C[C@@H]1CC[C@@H]2[C@H](COc3ccc(NC(=O)c4ccc(C(F)(F)F)cc4)cc3C(=O)N2C)O1`, the AC50 under setting [2] was 19.2 µM. As for `CN(C)/C=C1\C=C2C(=O)c3ccccc3N2C1=O`, the AC50 under setting [1] turned out to be 5.5 µM. `C[C@@H]1CN([C@@H](C)CO)C(=O)Cc2cc(NC(=O)Nc3cccc4ccccc34)ccc2O[C@@H]1CN(C)Cc1ccc(Cl)c(Cl)c1`: the AC50 under setting [2] was 2.12 µM. Regarding `CCN(CC)c1ccc2c(cc1=O)[C@@H](NC)CCc1cc(OC)c(OC)c(OC)c1-2`, the AC50 under setting [1] turned out to be 1.31 µM. The same measure, in the same setting: in the case of `COc1cc(-c2noc(C)c2C#Cc2ccccn2)cc(OC)c1OC` it was 0.747 µM; in that of `COc1ccccc1NC(=O)CSc1ccc(-c2ccccn2)nn1`, 20 µM. On the same count and under the same terms, in the case of `COc1cccc(-c2cc3nc(-c4ccccc4)cc(=O)n3[nH]2)c1` it was 2.35 µM. Consider `COc1cc(C(=O)OCCc2cc3ccccc3c(=O)o2)cc(OC)c1OC`, for which the AC50 under setting [1] came out at 1.59 µM. On the same count and under the same terms, in the case of `COc1cccc(C2=CC(c3ccccc3)n3nnnc3N2)c1` (configuration not stated) it was 3.85 µM; in that of `COC(=O)C1CC23C=CCN4CCC5(c6ccccc6NC15C2C)C43` (configuration not stated), 4.17 µM.

For the origin of these results see PubChem BioAssay AID743267 (Broad Institute, 2014).
